# According to the NIST ThermoML archive (doi:10.1021/acs.jced.7b00181):
# Numbers after ± are expanded uncertainties.
# Details: Liquid, Concentric cylinders viscometry
SMILES,"viscosity (298.15 K, 10000 kPa)","viscosity (298.15 K, 50000 kPa)","viscosity (298.15 K, 75000 kPa)","viscosity (313.15 K, 10000 kPa)","viscosity (313.15 K, 50000 kPa)","viscosity (313.15 K, 75000 kPa)","viscosity (323.15 K, 10000 kPa)","viscosity (323.15 K, 50000 kPa)","viscosity (323.15 K, 75000 kPa)","viscosity (333.15 K, 10000 kPa)","viscosity (333.15 K, 50000 kPa)","viscosity (333.15 K, 75000 kPa)","viscosity (343.15 K, 10000 kPa)","viscosity (343.15 K, 50000 kPa)","viscosity (343.15 K, 75000 kPa)","viscosity (353.15 K, 10000 kPa)","viscosity (353.15 K, 50000 kPa)","viscosity (353.15 K, 75000 kPa)"
CCCCCCCCCCCCCC[P+](CCCCCC)(CCCCCC)CCCCCC.FC(F)(F)C(F)(F)[P-](F)(F)(F)(C(F)(F)C(F)(F)F)C(F)(F)C(F)(F)F,413 ± 32 mPa·s,913 ± 75 mPa·s,1417 ± 120 mPa·s,189 ± 15 mPa·s,401 ± 33 mPa·s,615 ± 52 mPa·s,114 ± 9 mPa·s,223 ± 17 mPa·s,364 ± 29 mPa·s,78.1 ± 5.7 mPa·s,159 ± 12 mPa·s,232 ± 18 mPa·s,53.5 ± 3.9 mPa·s,112 ± 8 mPa·s,162 ± 12 mPa·s,37.9 ± 2.8 mPa·s,76.3 ± 5.6 mPa·s,109 ± 8 mPa·s
CCCCCCOS(=O)(=O)[O-].CC[n+]1ccn(C)c1 [3-ethyl-1-methyl-1H-imidazolium hexyl sulfate],354 ± 27 mPa·s,571 ± 45 mPa·s,737 ± 59 mPa·s,154 ± 12 mPa·s,238 ± 19 mPa·s,304 ± 25 mPa·s,94 ± 7 mPa·s,142 ± 11 mPa·s,186 ± 14 mPa·s,63.8 ± 4.6 mPa·s,94.8 ± 6.9 mPa·s,120 ± 9 mPa·s,44.5 ± 3.2 mPa·s,65.9 ± 4.8 mPa·s,82.1 ± 6 mPa·s,31.4 ± 2.3 mPa·s,46 ± 3.4 mPa·s,56.9 ± 4.2 mPa·s
